Key:
[1] = Japanese Kokai No. 104,735/1978, cited from earlier work; for immunosuppressive effect: particularly cell-mediated
PHA reaction = assay: PHA reaction, 50% inhibitory concentration (immunosuppressive action in vitro); format: cell-based; details: ester form as emulsion with polyoxyethylene-polyoxypropylene copolymer, salt form as aqueous solution; for IC50: read-out: Concentration for 50% inhibition
Experimental: In accordance with the PHA method by Cooparband et al. [The Journal of Immunology, 109, (1), 154 (1972)], the compounds of this invention were tested for the 50% inhibitory concentration in the PHA reaction. Also, the effect of IRA (Immunoregulatory α-globulin) obtained according to the method of Occhino et al. [The Journal of Immunology, 110, (3), 685 (1973)] was shown as comparative test data. Among these compounds, those of the ester form were used in emulsion employing a copolymer of polyoxyethylene-polyoxypropylene having molecular weight of 8350 as a surfactant, and those of the salt form were used as aqueous solutions.

[2] = system: carrageenin edema of hind footpad; assay: Carrageenin hind footpad edema in rats (anti-inflammatory action); format: in vivo; details: 50 mg/kg intraperitoneally 1 h before carrageenin, 4 hours after inoculation
Experimental: Using rats, each of derivatives of 7-hydroxycholesterol and of 7-ketocholesterol shown in Table 2 was administered intraperitoneally to 5 rats of each group in a dose of 50 mg/kg (physiologically isotonic aqueous solution with a concentration of 2.0% by weight), and one hour after the administration, each 0.05 ml of 1% aqueous carrageenin solution as an inflammation-causing substance was subcutaneously inoculated at the hind footpad.
After 4 hours from the inoculation of carrageenin, the size of edema caused on the footpad was measured by means of a volume differential meter to compare with that of the control group which was given to the physiological sodium chloride aqueous solution.
The ester samples administered were in the form of emulsion employing a phospholipid as a surfactant, and the salt samples were in the form of physiologically isotonic solution.

rats = assay: Acute toxicity test in rats; format: in vivo; details: intraperitoneal, 250, 500, 750 or 1000 mg/kg, 5-days' observation
Experimental: Acute toxicity tests were performed using rats, each group consisting of 5 rats each weighing approximately 200 g, on 7-ketocholesteryl hydrogen succinate, 7-ketocholesteryl hydrogen phthalate, sodium 7-ketocholesteryl succinate, ammonium 7-ketocholesteryl succinate, 7-hydroxycholesteryl hydrogen succinate, 7β-hydroxycholesteryl hydrogen phthalate, sodium 7-hydroxycholesteryl succinate, and sodium 7β-hydroxycholesteryl phthalate. Each of the compounds of salt type was made into a physiologically isotonic aqueous solution, and each of the compounds of ester type was dispersed with a surfactant and by ultrasonic wave treatment to give a uniform dispersion. Thereafter, each of them was administered intraperitoneally in an amount of 250 mg/kg, 500 mg/kg, 750 mg/kg, or 1000 mg/kg. After 5-days' observation, no rat died.

Structure (SMILES)	anti-inflammatory effect [1]	immunosuppressive effect [1]	Concentration for 50% inhibition (PHA reaction)	Swelling rate of edema ([2]; control 82, 50 mg/kg)	death of rats (acute toxicity) (rats)	IC50 (PHA reaction)	Swelling rate of edema ([2]; control 82)
CC(C)CCC[C@@H](C)[C@H]1CC[C@H]2[C@@H]3C(=O)C=C4C[C@@H](O)CC[C@]4(C)[C@H]3CC[C@]12C [7-ketocholesterol]	effective	effective as immunosuppressive agent					
CC(C)CCC[C@@H](C)[C@H]1CC[C@H]2[C@@H]3C(O)C=C4C[C@@H](OC(=O)CCC(=O)O)CC[C@]4(C)[C@H]3CC[C@]12C (stereo partly shown) [Sodium 7-hydroxycholesteryl succinate, sodium 7-hydroxycholesteryl succinate]			3 µg/mL	28%	no rat died		
CC(C)CCC[C@@H](C)[C@H]1CC[C@H]2[C@@H]3[C@@H](O)C=C4C[C@@H](OC(=O)c5ccccc5C(=O)O)CC[C@]4(C)[C@H]3CC[C@]12C [Sodium 7β-hydroxycholesteryl phthalate]			4 µg/mL	31%	no rat died		
CC(C)CCC[C@@H](C)[C@H]1CC[C@H]2[C@@H]3C(=O)C=C4C[C@@H](OC(=O)c5ccccc5C(=O)O)CC[C@]4(C)[C@H]3CC[C@]12C [7-ketocholesteryl hydrogen phthalate]					no rat died	4 µg/mL	28%
CC(C)CCC[C@@H](C)[C@H]1CC[C@H]2[C@@H]3[C@@H](O)C=C4C[C@@H](OC(=O)c5ccccc5C(=O)O)CC[C@]4(C)[C@H]3CC[C@]12C [7β-hydroxycholesteryl hydrogen phthalate]				30%	no rat died	3 µg/mL	
CC(C)CCC[C@@H](C)[C@H]1CC[C@H]2[C@@H]3C(O)C=C4C[C@@H](OC(=O)CCC(=O)O)CC[C@]4(C)[C@H]3CC[C@]12C (stereo partly shown) [7-hydroxycholesteryl hydrogen succinate]				29%	no rat died	3 µg/mL	
CC(C)CCC[C@@H](C)[C@H]1CC[C@H]2[C@@H]3C(O)C=C4C[C@@H](O)CC[C@]4(C)[C@H]3CC[C@]12C (stereo partly shown) [7-hydroxycholesterol]	effective	effective as immunosuppressive agent					
CC(C)CCC[C@@H](C)[C@H]1CC[C@H]2[C@@H]3C(=O)C=C4C[C@@H](OC(=O)CCC(=O)O)CC[C@]4(C)[C@H]3CC[C@]12C [7-ketocholesteryl hydrogen succinate]					no rat died	4 µg/mL	30%

Source: US4304726A, “Process for the preparation of cholesterol derivatives” (The Green Cross Corporation, priority 1979, dated 1981)
